Laboratory results as given in the supplement of paper PMC10307832.

Columns and labels:
Test in all cases: relative viability (nuclei count vs DMSO), 5 days (fraction); higher = more cells survive
[1] = compound: O=C(CCCCCCNC(=O)c1cnc(N(c2ccccc2)c2ccccc2)nc1)NO [Ricolinostat] + Cc1nc(Nc2ncc(C(=O)Nc3c(C)cccc3Cl)s2)cc(N2CCN(CCO)CC2)n1 [Dasatinib] (partner 0.075 µM)
Summary of the method: (§1)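 Relative viability divides the nuclei count in treated wells by that in vehicle wells. Lung cancer cell lines were seeded in 1536-well plates, dosed by pin tool the next day, and fixed and stained after 5 days in one step with final 0.05% Triton X-100, 1% formaldehyde and 1 ug/ml Hoechst. Dosing was a single drug or a fixed anchor-drug dose plus five library-drug doses (not always all listed) in √10 steps, and values are medians of duplicate plates imaged at 4×.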

[2] = compound: CC1=CN2C(=O)C=C(N=C2C(=C1)C(C)NC3=CC=CC=C3)N4CCOCC4 [TGX 221] + CC(=O)Nc1cccc(-n2c(=O)n(C3CC3)c(=O)c3c(Nc4ccc(I)cc4F)n(C)c(=O)c(C)c32)c1 [Trametinib] (partner 0.02 µM)
Summary of the method: as §1

[3] = compound: CC1=CN2C(=O)C=C(N=C2C(=C1)C(C)NC3=CC=CC=C3)N4CCOCC4 [TGX 221] + O=C(CCCCCCC(=O)Nc1ccccc1)NO [Vorinostat] (partner 1 µM)
Summary of the method: as §1

[4] = compound: C1=CC=C(C(=C1)C2=CC=C(C=C2)C3=CSC4=C3C(=C(C(=O)N4)C#N)O)O + Cc1nc(NC(=O)N2CCC[C@H]2C(N)=O)sc1-c1ccnc(C(C)(C)C(F)(F)F)c1 [Alpelisib] (partner 2 µM)
Summary of the method: as §1

Cell Line | relative viability ([1]; first compound 0.08 µM) | relative viability ([1]; first compound 0.253 µM) | relative viability ([1]; first compound 0.8 µM) | relative viability ([1]; first compound 2.53 µM) | relative viability ([2]; first compound 0.08 µM) | relative viability ([2]; first compound 0.253 µM) | relative viability ([2]; first compound 0.8 µM) | relative viability ([2]; first compound 2.53 µM) | relative viability ([2]; first compound 8 µM) | relative viability ([3]; first compound 0.08 µM) | relative viability ([3]; first compound 0.253 µM) | relative viability ([3]; first compound 0.8 µM) | relative viability ([3]; first compound 2.53 µM) | relative viability ([3]; first compound 8 µM) | relative viability ([4]; first compound 0.08 µM) | relative viability ([4]; first compound 0.253 µM) | relative viability ([4]; first compound 0.8 µM) | relative viability ([4]; first compound 2.53 µM) | relative viability ([4]; first compound 8 µM)
NCI-H1437 | 0.398 | 0.511 | 0.337 | 0.279 | 0.462 | 0.448 | 0.437 | 0.38 | 0.415 | 0.888 | 0.922 | 0.858 | 0.852 | 0.779 | 0.713 | 1.16 | 0.994 | 1.09 | 0.883
PC-3 [JPC-3] |  | 0.905 | 0.993 | 0.903 | 0.662 | 0.701 | 0.668 | 0.595 | 0.571 | 0.719 | 0.715 | 0.839 | 0.655 | 0.881 | 1.17 | 1.05 | 1.06 | 1.12 | 1.01
NCI-H1395 |  | 0.383 | 0.368 | 0.403 | 0.93 | 0.935 | 0.831 | 0.767 | 0.761 | 0.601 | 0.537 | 0.553 | 0.557 | 0.664 |  | 1.17 | 1.16 | 1.09 | 0.967
NCI-H1651 | 0.414 | 0.544 | 0.428 | 0.4 | 0.809 | 0.84 | 0.756 | 0.764 | 0.73 | 0.525 | 0.646 | 0.527 | 0.517 | 0.581 | 0.65 | 1.06 | 1.08 | 1.05 | 0.854
CAL-12T | 0.422 | 0.417 | 0.48 | 0.664 | 0.272 | 0.299 | 0.316 | 0.33 | 0.325 | 0.826 | 0.7 | 0.75 | 0.876 | 0.707 |  | 1.05 | 0.989 | 1.2 | 0.861
NCI-H23 | 0.667 | 0.786 | 0.698 | 0.47 | 0.279 | 0.329 | 0.338 | 0.403 | 0.328 | 0.638 | 0.625 | 0.579 | 0.498 | 0.659 | 0.652 | 0.695 | 0.833 | 0.719 | 0.421
NCI-H2228 | 0.432 | 0.591 | 0.457 | 0.382 | 0.518 | 0.526 | 0.801 | 0.379 | 0.489 | 0.462 | 0.324 | 0.599 | 0.575 | 0.302 | 0.585 | 0.927 | 0.712 | 0.803 | 0.816
NCI-H661 | 0.795 | 0.88 | 0.889 | 0.731 | 0.584 | 0.544 | 0.569 | 0.591 | 0.495 | 0.794 | 0.755 | 0.78 | 0.925 | 0.785 | 0.59 | 0.583 | 0.538 | 0.554 | 0.549
